Data as given in patent publication US20250017889A1, “INHIBITORS OF P1B-TYPE ATPASES” (THE CURATORS OF THE UNIVERSITY OF MISSOURI, priority 2021, published 2025).

How the values were obtained:
Format in all cases: cell-based
in vitro = details: mouse
Method: To test this hypothesis, a control compound was generated in which the sulfur atom in the thioamide was replaced with oxygen to generate a corresponding amide (MKV3-D1). […] 20C is a graph of the relationship between tyrosinase activity and compound concentration. […] 20D is a graph of the relationship between the survival of 4T1 breast cancer cells and compound concentration in the presence or absence of 10 μM copper.
Initial structural analysis focused on the importance of the sulfur in MKV3. […] It was thought that MKV3 may provide a coordinating Cu(I) ligand as a mechanism of preventing copper movement into the channel domain. To test this hypothesis, a control compound was generated in which the sulfur atom in the thioamide was replaced with oxygen to generate a corresponding amide (MKV3-D1). […] Using another assay of ATP7A inhibition, the ability of MKV3-D1 to sensitize 4T1 breast cancer cells to copper was tested.

[1] = tested on: Cu^S cells complemented with ATP7B; assay: Copper toxicity in Cu^S cells complemented with ATP7B; details: 10 μM, 50% cytotoxic copper concentration
Excerpt: 8A illustrates a copper sensitive fibroblast cell line (Cu^S) generated by deleting genes encoding ATP7A, metallothionein-I (MT-I) and metallothionein-II (MT-II). Cu^S cells cannot be propagated in regular medium (DMEM) unless a copper chelator (BCS) is supplied to the medium.
Cu^S cell lines were derived that were complemented by either ATP7A, ATP7B or MT-II.

ATP7B (hATP7B) = target: T1, ATP7B (hATP7B) (Homo sapiens, UniProt P35670); assay: Tyrosinase activation in B16 ATP7A^KO cells transfected with human ATP7B; details: 10 μM, 24 h, ATP7A^KO melanoma cells
T1 construct: expressed in transfected cells; host or cells: B16 melanoma ATP7A^KO cells (mouse), transient transfection
T1 sequence (P35670 1-1465): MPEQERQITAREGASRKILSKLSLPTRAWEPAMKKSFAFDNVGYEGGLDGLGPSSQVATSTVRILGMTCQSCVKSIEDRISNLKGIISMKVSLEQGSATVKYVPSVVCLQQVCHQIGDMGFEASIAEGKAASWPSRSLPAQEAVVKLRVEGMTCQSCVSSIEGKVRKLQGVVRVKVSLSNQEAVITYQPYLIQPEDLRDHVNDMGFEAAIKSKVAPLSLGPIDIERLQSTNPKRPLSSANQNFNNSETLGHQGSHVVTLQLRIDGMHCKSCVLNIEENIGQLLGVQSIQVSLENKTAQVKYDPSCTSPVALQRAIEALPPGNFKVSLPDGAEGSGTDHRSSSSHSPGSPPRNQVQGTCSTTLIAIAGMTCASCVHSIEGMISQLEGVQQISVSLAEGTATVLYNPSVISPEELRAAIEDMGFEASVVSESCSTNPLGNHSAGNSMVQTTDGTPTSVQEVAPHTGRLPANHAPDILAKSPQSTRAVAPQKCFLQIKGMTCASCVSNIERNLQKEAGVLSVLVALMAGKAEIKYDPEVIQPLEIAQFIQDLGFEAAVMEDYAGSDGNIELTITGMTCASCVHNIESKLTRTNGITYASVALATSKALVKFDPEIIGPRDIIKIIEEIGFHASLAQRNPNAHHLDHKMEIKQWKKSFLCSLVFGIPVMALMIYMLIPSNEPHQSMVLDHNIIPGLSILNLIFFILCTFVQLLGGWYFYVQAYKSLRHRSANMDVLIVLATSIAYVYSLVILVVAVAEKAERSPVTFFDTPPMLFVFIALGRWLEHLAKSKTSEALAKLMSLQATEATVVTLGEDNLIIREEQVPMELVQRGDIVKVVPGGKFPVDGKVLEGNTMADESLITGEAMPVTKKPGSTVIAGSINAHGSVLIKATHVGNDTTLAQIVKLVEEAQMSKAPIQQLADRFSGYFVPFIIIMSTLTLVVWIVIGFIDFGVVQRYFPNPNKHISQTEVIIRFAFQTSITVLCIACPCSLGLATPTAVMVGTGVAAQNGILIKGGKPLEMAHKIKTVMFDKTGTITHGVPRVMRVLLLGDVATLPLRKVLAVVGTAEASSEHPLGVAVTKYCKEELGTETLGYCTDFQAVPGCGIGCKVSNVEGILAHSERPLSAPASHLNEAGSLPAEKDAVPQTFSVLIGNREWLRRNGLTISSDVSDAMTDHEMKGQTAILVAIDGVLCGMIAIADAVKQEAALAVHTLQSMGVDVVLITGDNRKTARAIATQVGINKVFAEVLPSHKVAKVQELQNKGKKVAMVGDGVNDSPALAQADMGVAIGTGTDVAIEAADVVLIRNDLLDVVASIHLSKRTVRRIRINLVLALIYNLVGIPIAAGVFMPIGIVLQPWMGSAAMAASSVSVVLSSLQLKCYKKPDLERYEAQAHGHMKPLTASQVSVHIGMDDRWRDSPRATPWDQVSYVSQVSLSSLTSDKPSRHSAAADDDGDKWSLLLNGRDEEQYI
Excerpt: Prior studies have shown that exogenously expressed ATP7B can activate tyrosinase in cells lacking ATP7A. For these studies, a B16 melanoma cell model was used in which tyrosinase activity can be detected by in situ oxidation of L-DOPA to DOPAchrome (10A). As shown earlier, B16 cells deleted for the ATP7A gene (ATP7A^KO) completely lack tyrosinase activity (10B). […] Quantification of tyrosinase activity in these cells is shown (10G). Data represent mean±SEM; ****p<0.0001 of three independent replicates.

In the case of N#CC(C(=O)Nc1cccc(C(F)(F)F)c1)C(=S)Nc1ccccc1Cl (stereo not drawn) [MKV3], the CC50 (in vitro) is reported as 63.1 µM, the copper toxicity [1] is reported as “enhanced copper toxicity” and the “activation of tyrosinase activity by ATP7B” value (ATP7B (hATP7B)) is reported as “prevented activation of tyrosinase activity”.
